In the NIST ThermoML archive (doi:10.1016/j.jct.2005.05.019):
Where “and” joins values, the source holds several entries; their conditions need not be identical. Identical values can stand only once.

Conditions: Liquid; for mass density: Bellows volumetry; for vapor or sublimation pressure: Closed cell (Static) method

CC(C)C [2-methylpropane]
mass density
Conditions	280 K	300 K	320 K	340 K	360 K	380 K	400 K	420 K	440 K
1000 kPa	574.99 kg/m3	550.5 kg/m3	523.69 kg/m3	–	–	–	–	–	–
2000 kPa	576.63 kg/m3	–	526.51 kg/m3	496.95 kg/m3	461.05 kg/m3	–	–	–	–
3000 kPa	578.23 kg/m3	554.67 kg/m3	529.22 kg/m3	500.67 kg/m3	467.32 kg/m3	422.93 kg/m3 and 422.97 kg/m3	–	–	–
4000 kPa	–	–	–	–	–	–	374.9 kg/m3	–	–
5000 kPa	581.15 kg/m3	558.59 kg/m3	534.28 kg/m3	507.71 kg/m3	477.66 kg/m3	441.32 kg/m3 and 441.54 kg/m3	394.02 kg/m3	–	–
10000 kPa	587.88 kg/m3	567.19 kg/m3	545.21 kg/m3	521.75 kg/m3	496.94 kg/m3	468.99 kg/m3 and 469.14 kg/m3	438.72 kg/m3	404.86 kg/m3	366.35 kg/m3
20000 kPa	600.12 kg/m3	581.58 kg/m3	562.64 kg/m3	542.79 kg/m3	522.77 kg/m3	501.27 kg/m3 and 501.58 kg/m3	479.65 kg/m3	457.86 kg/m3	435.91 kg/m3
30000 kPa	610.42 kg/m3	593.56 kg/m3	576.49 kg/m3	558.72 kg/m3	541.32 kg/m3	522.56 kg/m3 and 522.99 kg/m3	504.24 kg/m3	486.44 kg/m3	469.37 kg/m3
40000 kPa	619.36 kg/m3	603.71 kg/m3	587.85 kg/m3	571.75 kg/m3	555.78 kg/m3	539.38 kg/m3	522.85 kg/m3	507.08 kg/m3	492.27 kg/m3
50000 kPa	627.41 kg/m3	612.8 kg/m3	597.69 kg/m3	582.77 kg/m3	568.17 kg/m3	552.44 kg/m3 and 552.92 kg/m3	537.71 kg/m3	523.34 kg/m3	510.21 kg/m3
60000 kPa	634.74 kg/m3	620.94 kg/m3	606.61 kg/m3	592.49 kg/m3	578.92 kg/m3	564.45 kg/m3	550.04 kg/m3	537.02 kg/m3	524.88 kg/m3
70000 kPa	641.52 kg/m3	628.12 kg/m3	614.55 kg/m3	601.18 kg/m3	588.19 kg/m3	574.7 kg/m3	561.13 kg/m3	548.69 kg/m3	537.25 kg/m3
80000 kPa	647.64 kg/m3	634.84 kg/m3	621.94 kg/m3	609.11 kg/m3	596.75 kg/m3	583.67 kg/m3	570.85 kg/m3	559.13 kg/m3	548.44 kg/m3
90000 kPa	653.57 kg/m3	641.05 kg/m3	628.85 kg/m3	616.5 kg/m3	604.39 kg/m3	592.06 kg/m3	579.4 kg/m3	568.43 kg/m3	558.09 kg/m3
100000 kPa	659 kg/m3	646.84 kg/m3	635.06 kg/m3	622.79 kg/m3	611.7 kg/m3	599.29 kg/m3 and 599.44 kg/m3	587.43 kg/m3	576.8 kg/m3	567 kg/m3
120000 kPa	669.09 kg/m3	657.68 kg/m3	646.41 kg/m3	634.99 kg/m3	624.5 kg/m3	612.95 kg/m3	601.69 kg/m3	591.55 kg/m3	582.66 kg/m3
140000 kPa	678.21 kg/m3	667.21 kg/m3	656.55 kg/m3	645.72 kg/m3	635.8 kg/m3	624.62 kg/m3	614.21 kg/m3	604.56 kg/m3	595.99 kg/m3
160000 kPa	686.38 kg/m3	676.01 kg/m3	665.84 kg/m3	655.32 kg/m3	645.85 kg/m3	635.26 kg/m3	625.04 kg/m3	616.21 kg/m3	608.09 kg/m3
180000 kPa	694.06 kg/m3	684 kg/m3	674.38 kg/m3	664.26 kg/m3	655.11 kg/m3	644.86 kg/m3	635.05 kg/m3	626.52 kg/m3	618.72 kg/m3
200000 kPa	701.06 kg/m3	691.43 kg/m3	682.01 kg/m3	672.25 kg/m3	663.39 kg/m3	653.7 kg/m3 and 653.25 kg/m3	644.07 kg/m3	635.99 kg/m3	628.4 kg/m3

Conditions	vapor or sublimation pressure [kPa]
280 K	199.8
300 K	369.8
